Like-named read-outs stand apart in the source and are kept apart here.
How the values were obtained:
[1] = target: human serum albumin (HSA) (Homo sapiens, UniProt P02768); test: Protein binding on Chiralpak HSA HPLC column
Method: (§1) The measurement of the biomimetic properties of the available drugs was conducted in our laboratories. Generic gradient HPLC methods were used to determine the chromatographic hydrophobicity Index (CHI) using mobile phases at three different pH values. The protein binding of the compounds was measured using immobilised human serum albumin (HSA), and alpha-1-acid-glycoprotein (AGP) stationary phases. The phospholipid-binding was measured using the immobilised artificial membrane (IAM) stationary phase. The aim was to establish relationships between the cardiotoxicity potential and the biomimetic binding properties of the drugs and to evaluate their predictive performance.

[2] = system: alpha-1-acid-glycoprotein (AGP); test: Protein binding on Chiralpak AGP HPLC column
Method: as §1

hERG channel = settings: cited from earlier work
[3] = Phospholipid binding at pH 7.4 on IAM PC.DD2 HPLC column; format: physicochemical; set-up: key to CHI IAM: approximates acetonitrile concentration (%) in mobile phase at elution; settings: for CHI IAM: pH 7.4; for log k IAM: pH 7.4, derived from CHI IAM by equation 1
Method: The phospholipid-binding was measured using an IAM PC.DD2 column with dimensions of 100 x 4.6 mm (Regis Technologies Inc., Morton Grove, IL, USA). The gradient retention times were measured using a 50 mM ammonium acetate mobile phase with the pH adjusted to 7.4. The mobile phase flow rate was 1.5 mL/min. […] The cycle time was 6 min, plus an additional 1 min equilibration time was applied while the injector prepared for the next injection. The gradient retention times were calibrated with the acetophenone homologues for which the CHI IAM values have been established using isocratic measurements. […] The CHI Index on the IAM column (CHI IAM) approximates the acetonitrile concentration in the mobile phase when the compound elutes. […] The CHI IAM values have been converted to log k IAM values derived from the CHI IAM values using equation 1. It represents the equivalent value derived from several isocratic measurements with extrapolated log retention factors to 100 % aqueous mobile phase. The log k IAM values can be converted to log K (IAM) values and show linear relationships with the octanol/water partition coefficients.

[4] = CHI lipophilicity by gradient reversed-phase HPLC (Gemini NX-C-18); settings: for chromatographic logD: Gemini NX-C-18 reversed-phase HPLC column, pH 7.4; for chromatographic logP: reversed-phase HPLC, Gemini NX-C-18 column (50 x 3 mm, 5 µm)
Method: The Chromatographic Hydrophobicity Index (CHI) was measured using the compounds’ calibrated gradient retention times obtained from an Agilent 1100 HPLC fitted with a Gemini NX-C-18 column (Phenomenex Ltd Macclesfield, UK) with dimensions of 50 x 3 mm and 5 μm particle size. […] The mobile phase B was 100 % acetonitrile. […] An acetonitrile linear gradient was used from 0 to 100 %. […] The retention time values for a standard set of compounds listed in Table 1 were used to convert the drug retention times to CHI values.

[5] = Charge character of the drugs at pH 7.4; format: physicochemical
[6] = literature values, mean where several reported, molar

human serum albumin (HSA), sequence (P02768 25-609): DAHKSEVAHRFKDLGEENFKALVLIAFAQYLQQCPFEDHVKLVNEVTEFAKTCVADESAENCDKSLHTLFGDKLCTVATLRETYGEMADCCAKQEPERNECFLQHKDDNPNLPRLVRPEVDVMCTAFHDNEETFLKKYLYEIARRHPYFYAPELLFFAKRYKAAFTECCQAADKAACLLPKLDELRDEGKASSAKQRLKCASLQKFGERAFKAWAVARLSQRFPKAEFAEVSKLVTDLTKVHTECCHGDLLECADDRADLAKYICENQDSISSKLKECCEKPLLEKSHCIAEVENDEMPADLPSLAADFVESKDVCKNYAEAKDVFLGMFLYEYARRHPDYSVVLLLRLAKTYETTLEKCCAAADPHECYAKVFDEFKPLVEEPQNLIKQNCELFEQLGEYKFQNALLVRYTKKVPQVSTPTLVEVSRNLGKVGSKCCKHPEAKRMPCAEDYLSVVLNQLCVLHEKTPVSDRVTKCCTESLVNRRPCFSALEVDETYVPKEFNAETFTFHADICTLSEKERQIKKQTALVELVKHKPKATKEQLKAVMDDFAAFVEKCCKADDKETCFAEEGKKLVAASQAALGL

SMILES | log k HSA ([1]; pH 7.4, Chiralpak HSA) | log k AGP ([2]; pH 7.4, Chiralpak AGP) | hERG pIC50 (hERG channel) | CHI IAM [3] | log k IAM [3] | chromatographic logD [4] | chromatographic logP [4] | Charge [5] | hERG pIC50 (hERG channel; [6]) | log k HSA ([1]; human, pH 7.4) | log k AGP ([2]; pH 7.4)
COc1cc2nc(N(C)CCCNC(=O)C3CCCO3)nc(N)c2cc1OC (stereo not drawn) [Alfuzosin] | 0.08 | 0.32 | 4.28 |  |  |  |  |  |  |  | 
CN1CCN(C2=Nc3cc(Cl)ccc3Nc3ccccc32)CC1 [Clozapine] | 1.04 | 0.99 |  | 52.42 | 2.83 | 2.6 | 3.05 | Weak Base |  |  | 
CN(CCOc1ccc(NS(C)(=O)=O)cc1)CCc1ccc(NS(C)(=O)=O)cc1 [Dofetilide] | -0.05 | 0.59 | 5.72 |  |  | 1.18 | 1.12 | Weak Base |  |  | 
O=c1[nH]c2ccccc2n1CCCN1CCC(n2c(=O)[nH]c3cc(Cl)ccc32)CC1 [Domperidone] | 1.02 |  |  | 43.47 | 2.42 | 1.37 | 2.13 | Weak Base |  |  | 
O=C(CCCN1CC=C(n2c(=O)[nH]c3ccccc32)CC1)c1ccc(F)cc1 [Droperidol] | 0.98 | 1.69 |  |  |  | 2.26 | 2.68 | Weak Base |  |  | 
CN1C2CCCC1CC(NC(=O)c1nn(C)c3ccccc13)C2 (stereo not drawn) [Granisetron] | 0.34 | 0.52 |  |  | 2.53 | 0.79 | 2.5 | Basic |  |  | 
C[C@H]1COc2c(N3CCN(C)CC3)c(F)cc3c(=O)c(C(=O)O)cn1c23 [Levofloxacin] |  | -0.74 | 2.93 | 28.55 | 1.73 | 0.54 |  | Zwitterionic |  |  | 
CNCCCC12CCC(c3ccccc31)c1ccccc12 [Maprotiline] |  | 0.99 |  |  | 3.03 | 2.03 | 4.79 | Basic | 5.17 |  | 
OC(c1cc(C(F)(F)F)nc2c(C(F)(F)F)cccc12)C1CCCCN1 (stereo not drawn) [Mefloquine] | 1.38 | 1.11 | 5.45 |  |  | 2.18 | 4.22 | Basic |  |  | 
CCN(CC)CCNC(=O)c1cc(Cl)c(N)cc1OC [Metoclopramide] |  |  |  |  |  |  |  | Basic | 5.27 | 0.15 | 0.23
COCC(=O)O[C@]1(CCN(C)CCCc2nc3ccccc3[nH]2)CCc2cc(F)ccc2[C@@H]1C(C)C [Mibefradil] |  | 1.11 | 5.88 |  | 2.96 | 2.96 | 3.99 | Basic |  |  | 
Clc1ccc(COC(Cn2ccnc2)c2ccc(Cl)cc2Cl)c(Cl)c1 (stereo not drawn) [Miconazole] |  | 1.26 | 5.68 | 53.72 | 2.89 | 4.64 | 4.7 | Weak Base |  |  | 
COc1c(N2C[C@@H]3CCCN[C@@H]3C2)c(F)cc2c(=O)c(C(=O)O)cn(C3CC3)c12 [Moxifloxacin] |  |  |  |  |  |  |  | Zwitterionic | 3.83 | 0.54 | 
CC1COc2c(N3CCN(C)CC3)c(F)cc3c(=O)c(C(=O)O)cn1c23 (stereo not drawn) [Ofloxacin] |  | -0.81 | 2.93 |  | 1.62 | 0.53 |  | Zwitterionic |  |  | 
OCCN1CCN(CCCN2c3ccccc3Sc3ccc(Cl)cc32)CC1 [Perphenazine] |  | 1.13 |  |  | 2.61 | 2.92 | 3.5 | Weak Base | 5.88 |  | 
CNCCCC1c2ccccc2C=Cc2ccccc21 [Protriptyline] |  | 1.03 |  |  | 2.79 | 1.72 | 4.7 | Weak Base | 5.30 |  | 
CC(C)(C)NC(=O)[C@@H]1C[C@@H]2CCCC[C@@H]2CN1C[C@@H](O)[C@H](Cc1ccccc1)NC(=O)[C@H](CC(N)=O)NC(=O)c1ccc2ccccc2n1 [Saquinavir] |  | 1.59 |  | 42.17 | 2.36 | 3.31 | 3.39 | Weak Base | 5.82 |  | 
CC(C)NCC(O)c1ccc(NS(C)(=O)=O)cc1 (stereo not drawn) [Sotalol] |  | -1.41 |  |  | 1.43 | -0.39 | -0.35 | Basic | 3.57 |  | 
CC(=O)S[C@@H]1CC2=CC(=O)CC[C@]2(C)[C@H]2CC[C@@]3(C)[C@@H](CC[C@@]34CCC(=O)O4)[C@H]12 [Spironolactone] | 0.78 | 0.50 |  | 36.93 | 2.12 | 2.76 | 2.97 | Neutral |  |  | 
O=c1n(CCCN2CCN(c3cccc(Cl)c3)CC2)nc2ccccn12 [Trazodone] |  | 0.46 |  |  | 1.93 | 2.51 | 2.59 | Weak Base | 5.30 |  | 
CN1CCN(CCCN2c3ccccc3Sc3ccc(C(F)(F)F)cc32)CC1 [Trifluoperazine] |  | 1.19 |  |  | 3.55 | 3.8 | 5.14 | Basic | 5.72 |  | 

— paper PMC8920097, “Prediction of hERG inhibition of drug discovery compounds using biomimetic HPLC measurements” (ADMET & DMPK, 2021)
